According to patent publication US20130309238A1, “SIGNAL TRANSDUCTION PATHWAY MODULATION” (NEWCASTLE INNOVATION LIMITED, priority 2010, published 2013):

Legend:
PP2A [1] = biological target: T1, PP2A (Homo sapiens, UniProt P67775); test: PP2A activity in HDM-stimulated human bronchial epithelial cells (BEAS-2B); format: cell-based; conditions: BEAS-2B + crude HDM extract, 24 hours; salbutamol 0.1, 1, 10 μM; mitoxantrone analogue 1, 5, 25 μg/ml; AAL(s) 0.5, 2 μM
T1 construct: endogenous in cells; host or cells: BEAS-2B
Description: • Activation of PP2A The inventors have examined the ability of known PP2A agonists to influence PP2A activity in human bronchial epithelial cells stimulated with crude house dust mite extract. Immortalised human bronchial epithelial cells (BEAS-2B) were seeded at 1×10^5 cells/well in 12-well tissue culture plates and allowed to reach 80% confluency. Cells were then treated with either salbutamol, a mitoxantrone analogue, or AAL(s), at a range of tolerable concentrations (0.1, 1 and 10 μM for salbutamol; 1, 5 and 25 μg/ml for the nitoxantrone analaogue; and 0.5 and 2 μM for AAL(s)). Simultaneously, cells were stimulated with crude House Dust Mite (HDM) extract and left for 24 hours. Cells were then collected, washed, lysed, and PP2A activity assayed (R&D Systems), measuring phosphatase activity when fed a synthetic substrate. PP2A activity was reduced upon HDM stimulation compared to the non-stimulated media only group (representing physiologically normal activity levels).

HDM-allergic mice [2] = test: AHR measurement in house dust mite (HDM)-induced allergic airways disease; format: in vivo, BALB/c mice; conditions: HDM-sensitized and challenged mice; treatment during allergen challenge
Description: Mice were sensitized and challenged by exposing them intranasally to house dust mite (HDM) (50 mcg daily at day 0, 1, and 2 followed by 5×5 mcg daily from day 14 to day 17 delivered in 50 μl of sterile saline). The single dose of HDM employed in initial studies was 50 mcg/50 μl of sterile saline. Non-sensitized mice received sterile saline only.
AHR was assessed invasively in separate groups of anesthetized mice by measurement of total lung resistance and dynamic compliance. Percentage increase over baseline (water) in response to nebulised methacholine was calculated.
(§1) Specifically, allergic mice were treated with a commercially available (Ambion) in-vitro validated small interfering (si)RNA directed against Midline-1 (SEQ ID NO:3) (MID1 siRNA) or a scrambled nonsense siRNA (control) following previously established protocols. BALB/c mice were anesthetised with isoflurane before being sensitised with the intranasal administration of either 50 μg House Dust Mite antigen (HDM) in 50 μl of sterile saline or 50 μl of sterile saline in control groups. This sensitisation was repeated at days 1 and 2 following initial sensitisation. On day 14 following initial sensitisation the mice were again anesthetised with isoflurane before receiving intranasal challenge with 5 μg of HDM in […] of sterile water. This challenge dosage was repeated daily from day 14 through 17. Mice received intranasal administration of maked Mid-1 siRNA or scramble control in 25 μl of saline under isoflurane anaesthesia on days 13, 15 and 17, through the period of HDM challenge. On day 18, 24 hrs after the final HDM challenge, the mice were sacrificed with an excess dose of sodium pentobarbitone administered intraperitoneally (200 μl total volume).

CCL20 = CCL20 expression/release in airway wall or lung homogenates of HDM-allergic mice; format: in vivo, BALB/c mice; conditions: HDM-sensitized and challenged mice
Description: Total RNA was isolated with mirVana m/miRNA Isolation kit (Ambion) from lower airway tissue that was separated by blunt dissection allowing effective separation of the airway wall from the parenchyma (Mattes, 2009). quantitative RT-PCR (qRT-PCR) was performed with SYBR® Green (Invitrogen) using an Eppendorf […] (threshold cycle) quantification was performed using Eppendorf Realplex analysis software 2.2. Mouse mRNA expression was normalised to HPRT, human mRNA to GAPDH. Fold change was calculated using delta delta CT values relative to control groups.

HDM-allergic mice [3] = test: Airway inflammation, mucus-producing cells and BALF cells in HDM-induced allergic airways disease; format: in vivo, BALB/c mice
Description: as §1, with “Mice were sensitized and challenged by exposing them intranasally to house dust mite (HDM) (50 mcg daily at day 0, 1, and 2 followed by 5×5 mcg daily from day 14 to day 17 delivered in 50 μl of sterile saline). The single dose of HDM employed in initial studies was 50 mcg/50 μl of sterile saline. Non-sensitized mice received sterile saline only. Lung tissue was stained, cells identified by morphological criteria, and quantitated by counting ten high power fields (HPFs) in each slide. […] Specifically,” for “Specifically,”

[4] = tested on: ovalbumin-challenged mice; conditions: OVA 3x a week for 3 months, AAL(S) daily
Source text: (§2) The inventors then determined the ability of AAL(S) to protect against airway fibrosis in two mouse models, a chronic ovalbumin model of allergic airways disease and an acute bleomycin-induced fibrosis model.
Mice received ovalbumin (OVA)+alumn IP at day 0 and 2 weeks. Mice then received OVA 3× a week for 3 months. AAL treated mice received AAL(S) daily throughout the 3 month challenge period.

sphingosine kinase 2 = sphingosine kinase 2 (Homo sapiens, UniProt Q9NRA0); conditions: Don et al., 2007; cited from earlier work
PP2A [5] = biological target: PP2A (Mus musculus, UniProt P63330); conditions: HDM-allergic mice, daily intranasal treatment
Description: PP2a activity was measured by R&D Systems PP2A DuoSet IC activity assay kit according to the manufacturer's instructions. This was performed on homogenized mouse lungs and harvested BEAS-2B cells.

[6] = in vivo; cited from earlier work
[7] = tested on: sphingosine-1-phosphate receptors; conditions: Don et al., 2007; cited from earlier work
bleomycin-treated mice = conditions: bleomycin intratracheally, sacrificed after 23 days; AAL(S) daily
Source text: as §2
In the bleomycin model, mice received bleomycin intratracheally and were sacrificed after 23 days. AAL(S) treated mice received AAL(S) daily post bleomycin administration.

[8] = tested on: peribronchial lymph node cells; test: Cytokine release from in-vitro HDM-stimulated peribronchial lymph node cells; format: in vivo, BALB/c mice; conditions: HDM-sensitized and challenged mice
Description: Peribronchial lymph node cells were excised, filtered, and cultured in the presence or absence of 50 mcg/ml HDM (optimal concentration) for 6 days. IL-13, IL-5, and IFN-γ were determined by ELISA (BD Biosciences Pharmingen).

[9] = HDM-allergic and challenged mice

T1 sequence (P67775 whole entry): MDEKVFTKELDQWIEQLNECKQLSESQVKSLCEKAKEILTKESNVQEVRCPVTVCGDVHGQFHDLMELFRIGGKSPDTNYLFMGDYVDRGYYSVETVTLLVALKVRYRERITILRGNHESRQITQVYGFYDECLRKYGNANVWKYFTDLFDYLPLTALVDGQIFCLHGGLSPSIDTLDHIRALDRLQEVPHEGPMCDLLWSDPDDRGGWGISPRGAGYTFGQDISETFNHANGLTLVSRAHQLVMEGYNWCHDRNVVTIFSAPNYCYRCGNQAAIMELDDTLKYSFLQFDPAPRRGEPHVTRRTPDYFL
T1 sequence (P30153 whole entry partner): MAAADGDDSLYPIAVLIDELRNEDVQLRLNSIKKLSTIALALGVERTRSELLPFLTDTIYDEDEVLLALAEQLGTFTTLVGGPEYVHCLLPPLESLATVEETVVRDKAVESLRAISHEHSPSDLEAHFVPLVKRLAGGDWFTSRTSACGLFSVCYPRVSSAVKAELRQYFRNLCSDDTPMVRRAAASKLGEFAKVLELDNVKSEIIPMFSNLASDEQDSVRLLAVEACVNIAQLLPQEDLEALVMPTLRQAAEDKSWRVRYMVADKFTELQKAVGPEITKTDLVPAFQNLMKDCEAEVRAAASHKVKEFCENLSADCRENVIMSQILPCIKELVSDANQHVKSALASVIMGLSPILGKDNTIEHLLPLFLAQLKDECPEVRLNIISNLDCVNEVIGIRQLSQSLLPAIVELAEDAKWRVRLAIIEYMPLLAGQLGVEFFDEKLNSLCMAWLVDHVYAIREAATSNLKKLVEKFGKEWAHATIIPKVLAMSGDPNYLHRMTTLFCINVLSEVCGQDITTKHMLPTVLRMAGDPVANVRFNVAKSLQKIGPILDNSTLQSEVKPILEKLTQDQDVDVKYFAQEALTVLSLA
Chain of PP2A (Mus musculus, UniProt P63330) (P63330 whole entry): as the sequence (P67775 whole entry) above, with V5L counted along it
Chain of PP2A (Mus musculus, UniProt P63330) (Q76MZ3 whole entry partner): as the sequence (P30153 whole entry partner) above, with S324T counted along it
Chain of sphingosine kinase 2 (Q9NRA0 whole entry, species assumed): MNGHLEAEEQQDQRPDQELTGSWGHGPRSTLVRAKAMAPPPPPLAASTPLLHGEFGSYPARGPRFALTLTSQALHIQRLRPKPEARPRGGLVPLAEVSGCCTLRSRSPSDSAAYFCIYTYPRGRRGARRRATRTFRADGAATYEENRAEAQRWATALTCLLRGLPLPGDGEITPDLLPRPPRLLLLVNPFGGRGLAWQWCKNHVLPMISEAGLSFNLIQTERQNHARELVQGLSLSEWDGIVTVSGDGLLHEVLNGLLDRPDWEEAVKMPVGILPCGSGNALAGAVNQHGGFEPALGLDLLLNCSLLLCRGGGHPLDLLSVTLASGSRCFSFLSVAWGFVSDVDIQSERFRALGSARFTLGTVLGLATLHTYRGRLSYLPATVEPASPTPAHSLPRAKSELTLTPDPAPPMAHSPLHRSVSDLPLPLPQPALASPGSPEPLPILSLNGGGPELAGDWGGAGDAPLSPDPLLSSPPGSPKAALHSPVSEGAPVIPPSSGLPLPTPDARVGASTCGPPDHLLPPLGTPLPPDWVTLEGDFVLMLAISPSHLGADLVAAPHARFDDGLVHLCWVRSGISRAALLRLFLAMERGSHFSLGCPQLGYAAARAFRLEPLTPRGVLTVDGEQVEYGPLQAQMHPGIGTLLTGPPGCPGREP

Row | Compound | PP2A activity (phosphatase activity on synthetic substrate) (PP2A [1]) | airways hyperresponsiveness (total lung resistance in response to inhaled methacholine) (HDM-allergic mice [2]) | CCL20 release (levels in lung homogenates) (CCL20) | eosinophils (BALF) (HDM-allergic mice [3]; [9]) | lymphocytes (BALF) (HDM-allergic mice [3]; [9]) | neutrophils (BALF) (HDM-allergic mice [3]; [9]) | lung function (forced vital capacity and forced expiratory volume in 100 milliseconds) [4] | airways fibrosis (collagen deposition surrounding the airways) ([4]; wildtype BALB/c mice) | phosphorylation by sphingosine kinase 2 (sphingosine kinase 2) | PP2A activity in the lungs (PP2A [5]) | lymphopenia [6] | binding to sphingosine-1-phosphate receptors [7] | airways inflammation (HDM-allergic mice [3]; HDM-sensitized and challenged mice, treatment during allergen challenge) | collagen deposition in airways (bleomycin-treated mice) | Th2 cytokine release in allergen-stimulated peribronchial lymphnode cultures [8]
1 | CC(C)(C)NCC(O)c1ccc(O)c(CO)c1 (stereo not drawn) [salbutamol] | restore PP2A activity to a significant level |  |  |  |  |  |  |  |  |  |  |  |  |  | 
2 | CCCCCCCCc1ccc(CCC(N)(CO)CO)cc1 [FTY720] |  | reduced | reduced | reduced | reduced | reduced |  |  |  |  |  |  |  |  | 
3 | CCCCCCCOc1ccc(CCC(C)(N)CO)cc1 [AAL(S), 2-amino-4-(4-heptyloyphenol)-2-methylbutanol] | fully restored | precluded the development | reduced |  |  |  | improved | protected | cannot be phosphorylated | reactivates PP2A in the lungs | does not cause lymphopenia | does not bind | precluded the development | protected | reduced
4 | CCCCCCCCc1ccc(CCC(N)(CO)COP(=O)(O)O)cc1 (stereo not drawn) [pFTY720] |  | partial reduction |  | partial reduction |  | partial reduction |  |  |  |  |  |  |  |  | 
